Data on 5 compounds can be found in ChEMBL document CHEMBL1201862, “PubChem BioAssay data set” (2004).

Several values for one entry are separate records, joined by “and”; a condition that tells them apart may be missing. Equal values may be shown once. Activity calls are given as the source filed them. Some results are limits rather than exact numbers.

What is called AC50 is the concentration giving half of the maximal activity seen. By EC50 is commonly meant the concentration giving half of the maximal effect.

The subject of one series is Candida albicans. The series is described as follows: growth inhibition of resistant C. albicans, dose response, CaCi-8, fluconazole, Alamar Blue, dry powder (AID 488807). It counts as functional, organism-based. On the technique in general: Resazurin is reduced to fluorescent resorufin, in cell work by metabolically active cells.
Series [1] concerns the target T1, Small ubiquitin-related modifier 1 (Homo sapiens, UniProt P63165). In words: inhibitors of SUMO1 peptide binding, dose response, biochemical, fluorescence polarization, uHTS hits (AID 624382). It counts as functional. The note with it: read-out: IC50_Mean. A general note: Polarisation of emitted light reports the rotation of a fluorescent probe.
Series [2] addresses T2, Voltage-gated N-type calcium channel alpha-1B subunit/Amyloid beta A4 precursor protein-binding family A member 1 (Homo sapiens, UniProt Q00975+Q02410). It counts as protein assay.
Series [3] addresses T1, Small ubiquitin-related modifier 1. In words: inhibitors of SUMO1 partner interactions, dose response, biochemical, FRET (AID 624383). It counts as functional. Particulars: read-out: IC50_Mean.
Series [4] concerns the target T3, Apoptotic protease-activating factor 1 (Homo sapiens, UniProt O14727).
T3 sequence (O14727 whole entry): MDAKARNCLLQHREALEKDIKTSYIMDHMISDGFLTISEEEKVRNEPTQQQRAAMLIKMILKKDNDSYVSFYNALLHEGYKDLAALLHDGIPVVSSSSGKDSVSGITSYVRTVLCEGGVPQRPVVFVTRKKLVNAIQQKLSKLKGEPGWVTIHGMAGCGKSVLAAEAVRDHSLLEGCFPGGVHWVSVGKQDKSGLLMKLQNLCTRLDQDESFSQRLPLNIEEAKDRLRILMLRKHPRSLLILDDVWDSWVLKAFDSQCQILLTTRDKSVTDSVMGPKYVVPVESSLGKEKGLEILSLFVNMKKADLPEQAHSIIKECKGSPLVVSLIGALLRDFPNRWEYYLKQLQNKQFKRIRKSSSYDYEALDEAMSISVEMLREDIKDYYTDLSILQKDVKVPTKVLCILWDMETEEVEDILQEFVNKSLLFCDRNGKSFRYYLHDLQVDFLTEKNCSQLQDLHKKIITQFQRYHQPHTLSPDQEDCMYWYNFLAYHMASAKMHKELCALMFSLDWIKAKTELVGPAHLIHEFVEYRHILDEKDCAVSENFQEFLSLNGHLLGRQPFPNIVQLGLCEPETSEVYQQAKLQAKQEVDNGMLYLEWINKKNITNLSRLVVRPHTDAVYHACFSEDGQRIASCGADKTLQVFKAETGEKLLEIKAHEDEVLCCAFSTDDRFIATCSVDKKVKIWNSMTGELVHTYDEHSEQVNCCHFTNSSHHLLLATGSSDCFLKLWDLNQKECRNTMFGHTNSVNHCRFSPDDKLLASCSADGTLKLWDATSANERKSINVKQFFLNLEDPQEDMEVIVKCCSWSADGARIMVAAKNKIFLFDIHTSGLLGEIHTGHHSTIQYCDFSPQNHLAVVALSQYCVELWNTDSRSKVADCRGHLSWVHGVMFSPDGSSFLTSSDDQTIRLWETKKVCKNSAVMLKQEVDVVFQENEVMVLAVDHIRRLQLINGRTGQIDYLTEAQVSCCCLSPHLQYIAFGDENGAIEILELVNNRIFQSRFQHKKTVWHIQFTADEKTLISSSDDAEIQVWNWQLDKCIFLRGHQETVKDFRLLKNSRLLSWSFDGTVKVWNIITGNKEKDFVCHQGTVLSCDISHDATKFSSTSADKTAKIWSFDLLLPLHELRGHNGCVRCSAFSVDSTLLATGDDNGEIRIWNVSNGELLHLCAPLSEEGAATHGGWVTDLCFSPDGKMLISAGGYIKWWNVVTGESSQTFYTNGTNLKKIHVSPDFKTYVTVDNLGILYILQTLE
The series is described as follows: activation of Apaf-1 mediated apoptosis – fluorescent, uHTS hits, dose response (AID 588554). It counts as functional.

Series [5] has as its target T2, Voltage-gated N-type calcium channel alpha-1B subunit/Amyloid beta A4 precursor protein-binding family A member 1. It counts as protein assay. The source holds these as a separate data set.
The target in the next series is Cytochrome P450 2D6 (Homo sapiens, UniProt P10635).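 Also: CYP2D6 member of a cytochrome P450 panel assay.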
The target of the next series is T4, Cytochrome P450 1A2 (Homo sapiens, UniProt P05177).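 Also: PubChem cytochrome P450 panel assay, CYP1A2 panel member.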
T4 sequence (P05177 whole entry): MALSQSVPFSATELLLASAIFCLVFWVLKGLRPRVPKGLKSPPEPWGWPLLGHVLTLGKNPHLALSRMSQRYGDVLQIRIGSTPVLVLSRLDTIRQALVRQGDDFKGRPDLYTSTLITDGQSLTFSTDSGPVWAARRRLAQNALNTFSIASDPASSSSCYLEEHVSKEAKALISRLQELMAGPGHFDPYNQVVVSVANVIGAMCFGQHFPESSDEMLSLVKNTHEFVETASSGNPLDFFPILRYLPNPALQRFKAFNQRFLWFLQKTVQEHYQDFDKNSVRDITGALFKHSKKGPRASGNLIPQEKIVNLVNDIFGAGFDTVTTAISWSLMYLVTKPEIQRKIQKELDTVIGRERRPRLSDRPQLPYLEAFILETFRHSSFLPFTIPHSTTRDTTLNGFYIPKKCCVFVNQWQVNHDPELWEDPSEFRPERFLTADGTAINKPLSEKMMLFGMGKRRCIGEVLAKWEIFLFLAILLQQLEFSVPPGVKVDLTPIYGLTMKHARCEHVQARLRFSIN

The target of another series is Genome polyprotein (Hepatitis C virus, UniProt Q2Q167). The series is described as follows: HCV core protein dimerization inhibitors, dose response, biochemical, TR-FRET (AID 2159).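 Also: blocks dimerization of HCV core protein measured by TR-FRET between tagged core106 pairs.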 Also on record: species or system Hepacivirus hominis. (TR-FRET usually uses a lanthanide donor and a delayed reading to cut background.)
Sequence of Genome polyprotein (Q2Q167 whole entry): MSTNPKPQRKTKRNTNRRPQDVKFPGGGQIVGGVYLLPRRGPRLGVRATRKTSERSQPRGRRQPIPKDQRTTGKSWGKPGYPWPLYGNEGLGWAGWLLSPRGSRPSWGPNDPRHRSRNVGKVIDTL
The target of series [6] is T5, Rac GTPase-activating protein 1 (Homo sapiens, UniProt Q9H0H5).
T5 sequence (Q9H0H5 whole entry): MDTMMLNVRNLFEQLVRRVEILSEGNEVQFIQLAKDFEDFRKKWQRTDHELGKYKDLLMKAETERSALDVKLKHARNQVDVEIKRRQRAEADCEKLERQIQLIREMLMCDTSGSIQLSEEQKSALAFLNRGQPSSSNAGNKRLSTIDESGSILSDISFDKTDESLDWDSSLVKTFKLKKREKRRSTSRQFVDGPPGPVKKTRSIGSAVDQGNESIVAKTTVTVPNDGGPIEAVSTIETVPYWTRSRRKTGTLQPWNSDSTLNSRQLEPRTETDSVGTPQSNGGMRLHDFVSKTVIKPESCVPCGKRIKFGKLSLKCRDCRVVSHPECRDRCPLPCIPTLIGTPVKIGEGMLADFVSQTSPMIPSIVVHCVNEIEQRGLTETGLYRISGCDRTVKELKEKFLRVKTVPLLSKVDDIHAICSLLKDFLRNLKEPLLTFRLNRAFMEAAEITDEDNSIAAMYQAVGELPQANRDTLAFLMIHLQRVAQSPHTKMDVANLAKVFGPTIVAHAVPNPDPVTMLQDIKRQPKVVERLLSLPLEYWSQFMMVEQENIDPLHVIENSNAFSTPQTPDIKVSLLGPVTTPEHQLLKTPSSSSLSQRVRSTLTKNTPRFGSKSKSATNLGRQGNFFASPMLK
In words: MgcRacGAP GTPase-activating activity inhibitors, confirmation, biochemical, ADP Hunter fluorescence, primary and confirmatory (AID 624330). Format: functional.

The target in a further series is SUMO E1/E2 (Homo sapiens, UniProt P63279+Q9UBE0+Q9UBT2). In words: SAR analysis of SUMOylation using HTRF in an in-Vitro dose response assay. [Related pubchem assays (depositor defined):AID2006, AID2011, AID2018, AID2069, AID2658]. Format: functional.
Sequence of SUMO E1/E2 (Q9UBE0 whole entry): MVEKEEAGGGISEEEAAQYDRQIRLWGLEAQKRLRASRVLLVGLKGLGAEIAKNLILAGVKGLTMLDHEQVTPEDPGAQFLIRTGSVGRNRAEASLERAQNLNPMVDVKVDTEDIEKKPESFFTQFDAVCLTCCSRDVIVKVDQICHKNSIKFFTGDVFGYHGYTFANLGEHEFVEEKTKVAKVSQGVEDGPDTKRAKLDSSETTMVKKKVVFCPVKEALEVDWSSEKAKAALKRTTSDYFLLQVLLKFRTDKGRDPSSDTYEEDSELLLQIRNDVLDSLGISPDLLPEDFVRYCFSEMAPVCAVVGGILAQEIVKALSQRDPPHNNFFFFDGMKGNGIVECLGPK
Sequence of SUMO E1/E2 (Q9UBT2 whole entry): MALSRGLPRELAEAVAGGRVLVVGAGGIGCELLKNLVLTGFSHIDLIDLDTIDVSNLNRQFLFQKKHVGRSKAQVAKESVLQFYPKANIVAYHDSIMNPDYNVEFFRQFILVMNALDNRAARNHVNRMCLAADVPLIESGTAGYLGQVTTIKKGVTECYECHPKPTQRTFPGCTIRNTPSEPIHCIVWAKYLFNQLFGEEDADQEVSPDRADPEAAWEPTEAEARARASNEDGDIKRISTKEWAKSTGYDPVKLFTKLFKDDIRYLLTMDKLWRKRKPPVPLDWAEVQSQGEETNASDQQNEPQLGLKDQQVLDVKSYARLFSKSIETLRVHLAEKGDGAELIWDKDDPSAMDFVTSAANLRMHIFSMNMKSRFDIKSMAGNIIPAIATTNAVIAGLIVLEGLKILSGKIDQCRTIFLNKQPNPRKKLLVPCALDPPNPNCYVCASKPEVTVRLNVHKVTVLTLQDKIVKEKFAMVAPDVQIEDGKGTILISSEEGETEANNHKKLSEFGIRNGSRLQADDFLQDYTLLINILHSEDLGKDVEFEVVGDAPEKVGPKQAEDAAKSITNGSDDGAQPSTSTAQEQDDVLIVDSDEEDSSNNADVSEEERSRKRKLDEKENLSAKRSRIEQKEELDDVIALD
Sequence of SUMO E1/E2 (P63279 whole entry): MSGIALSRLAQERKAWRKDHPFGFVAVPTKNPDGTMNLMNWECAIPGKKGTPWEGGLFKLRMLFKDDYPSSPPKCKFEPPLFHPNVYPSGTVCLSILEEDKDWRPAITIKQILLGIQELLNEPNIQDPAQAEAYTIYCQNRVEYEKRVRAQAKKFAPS
In the next series the target is Protein Rev (Human immunodeficiency virus type 1 group M subtype B (isolate WMJ22)(HIV-1), UniProt P05866). In words: HIV-1 Rev-RRE RNA binding disruptors, dose response, biochemical, protein-RNA interaction (AID 842). More on the design: species or system Human immunodeficiency virus 1.
Sequence of Protein Rev (P05866 whole entry): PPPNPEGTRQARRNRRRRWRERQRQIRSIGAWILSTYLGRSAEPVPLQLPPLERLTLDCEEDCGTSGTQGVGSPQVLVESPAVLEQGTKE
The target in another series is T6, Bcl-2-like protein 10 (Homo sapiens, UniProt Q9HD36).
T6 sequence (Q9HD36 whole entry): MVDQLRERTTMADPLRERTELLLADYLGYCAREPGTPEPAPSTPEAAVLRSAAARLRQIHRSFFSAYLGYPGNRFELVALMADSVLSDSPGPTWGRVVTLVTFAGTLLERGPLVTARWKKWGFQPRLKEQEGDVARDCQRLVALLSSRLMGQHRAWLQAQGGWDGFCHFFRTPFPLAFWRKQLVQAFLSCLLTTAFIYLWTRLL
In words: displacers of TR3 peptide from Bcl-B, primary screen, selectivity assay for Bfl-1 inhibitor project, biochemical, fluorescence polarization, FITC-TR3 peptide (AID 748).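 Also: fluorescence polarization from a fluorescein-labelled TR3 peptide binding purified Bcl-B.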

For series [7], the target named is T2, Voltage-gated N-type calcium channel alpha-1B subunit/Amyloid beta A4 precursor protein-binding family A member 1. The series is described as follows: disruptors of Mint-PDZ/N-type channel peptide interaction – biochemical, HTRF, set 2, SAR follow-up (AID 434980). It counts as functional.
Series [8] addresses T7, SUMO-activating enzyme (Homo sapiens, UniProt Q9UBT2). The series is described as follows: SUMOylation inhibitor hit validation, confirmation, SUMOylation inhibitor project, biochemical, AlphaScreen (AID 2018). It counts as functional.
Series [9] addresses Protein-tyrosine kinase 2-beta (Homo sapiens, UniProt Q14289).
Series [10] has as its target T8, Probable nicotinate-nucleotide adenylyltransferase (Staphylococcus aureus (strain N315), UniProt P65502). Format: functional, Staphylococcus aureus subsp. aureus N315. Particulars: read-out: IC50_Mean.
Series [11] has as its target T8, Probable nicotinate-nucleotide adenylyltransferase. It counts as functional, Staphylococcus aureus subsp. aureus N315.
In series [12] the target is DNA (cytosine-5)-methyltransferase 1 (Homo sapiens, UniProt P26358). In words: DNMT1 methyltransferase inhibitors, confirmation, biochemical, fluorescent molecular beacon (AID 602386). It counts as functional.
For series [13], the target named is T7, SUMO-activating enzyme. In words: inhibitors of in vitro SUMOylation cascade, primary screen, biochemical, HTRF, uHTS (AID 2006). Format: protein-complex assay.
Series [14] addresses T2, Voltage-gated N-type calcium channel alpha-1B subunit/Amyloid beta A4 precursor protein-binding family A member 1. The series is described as follows: disruptors of Mint-PDZ/N-type channel peptide interaction – biochemical, HTRF, SAR follow-up (AID 2489). Format: functional.
A further series addresses Albumin (Bos taurus, UniProt P02769). In words: Counterscreen for inhibitors of T-cell receptor (TCR)-CD3 interaction: Fluorescence-based biochemical high throughput dose response assay to identify inhibitors of T-cell receptor (TCR)-CD3 interaction using a TAMRA-labeled BSA probe. It counts as functional.
In series [15] the target is UDP-galactopyranose mutase (Mycobacterium tuberculosis, UniProt P9WIQ1). In words: Inhibitors of Mycobacterium tuberculosis UDP-galactopyranose mutase (UGM) enzyme Measured in Biochemical System Using Plate Reader - 2105-02_Inhibitor_Dose_CherryPick_Activity. [Related pubchem assays (depositor defined):AID504439].

T2 sequence (Q00975 whole entry): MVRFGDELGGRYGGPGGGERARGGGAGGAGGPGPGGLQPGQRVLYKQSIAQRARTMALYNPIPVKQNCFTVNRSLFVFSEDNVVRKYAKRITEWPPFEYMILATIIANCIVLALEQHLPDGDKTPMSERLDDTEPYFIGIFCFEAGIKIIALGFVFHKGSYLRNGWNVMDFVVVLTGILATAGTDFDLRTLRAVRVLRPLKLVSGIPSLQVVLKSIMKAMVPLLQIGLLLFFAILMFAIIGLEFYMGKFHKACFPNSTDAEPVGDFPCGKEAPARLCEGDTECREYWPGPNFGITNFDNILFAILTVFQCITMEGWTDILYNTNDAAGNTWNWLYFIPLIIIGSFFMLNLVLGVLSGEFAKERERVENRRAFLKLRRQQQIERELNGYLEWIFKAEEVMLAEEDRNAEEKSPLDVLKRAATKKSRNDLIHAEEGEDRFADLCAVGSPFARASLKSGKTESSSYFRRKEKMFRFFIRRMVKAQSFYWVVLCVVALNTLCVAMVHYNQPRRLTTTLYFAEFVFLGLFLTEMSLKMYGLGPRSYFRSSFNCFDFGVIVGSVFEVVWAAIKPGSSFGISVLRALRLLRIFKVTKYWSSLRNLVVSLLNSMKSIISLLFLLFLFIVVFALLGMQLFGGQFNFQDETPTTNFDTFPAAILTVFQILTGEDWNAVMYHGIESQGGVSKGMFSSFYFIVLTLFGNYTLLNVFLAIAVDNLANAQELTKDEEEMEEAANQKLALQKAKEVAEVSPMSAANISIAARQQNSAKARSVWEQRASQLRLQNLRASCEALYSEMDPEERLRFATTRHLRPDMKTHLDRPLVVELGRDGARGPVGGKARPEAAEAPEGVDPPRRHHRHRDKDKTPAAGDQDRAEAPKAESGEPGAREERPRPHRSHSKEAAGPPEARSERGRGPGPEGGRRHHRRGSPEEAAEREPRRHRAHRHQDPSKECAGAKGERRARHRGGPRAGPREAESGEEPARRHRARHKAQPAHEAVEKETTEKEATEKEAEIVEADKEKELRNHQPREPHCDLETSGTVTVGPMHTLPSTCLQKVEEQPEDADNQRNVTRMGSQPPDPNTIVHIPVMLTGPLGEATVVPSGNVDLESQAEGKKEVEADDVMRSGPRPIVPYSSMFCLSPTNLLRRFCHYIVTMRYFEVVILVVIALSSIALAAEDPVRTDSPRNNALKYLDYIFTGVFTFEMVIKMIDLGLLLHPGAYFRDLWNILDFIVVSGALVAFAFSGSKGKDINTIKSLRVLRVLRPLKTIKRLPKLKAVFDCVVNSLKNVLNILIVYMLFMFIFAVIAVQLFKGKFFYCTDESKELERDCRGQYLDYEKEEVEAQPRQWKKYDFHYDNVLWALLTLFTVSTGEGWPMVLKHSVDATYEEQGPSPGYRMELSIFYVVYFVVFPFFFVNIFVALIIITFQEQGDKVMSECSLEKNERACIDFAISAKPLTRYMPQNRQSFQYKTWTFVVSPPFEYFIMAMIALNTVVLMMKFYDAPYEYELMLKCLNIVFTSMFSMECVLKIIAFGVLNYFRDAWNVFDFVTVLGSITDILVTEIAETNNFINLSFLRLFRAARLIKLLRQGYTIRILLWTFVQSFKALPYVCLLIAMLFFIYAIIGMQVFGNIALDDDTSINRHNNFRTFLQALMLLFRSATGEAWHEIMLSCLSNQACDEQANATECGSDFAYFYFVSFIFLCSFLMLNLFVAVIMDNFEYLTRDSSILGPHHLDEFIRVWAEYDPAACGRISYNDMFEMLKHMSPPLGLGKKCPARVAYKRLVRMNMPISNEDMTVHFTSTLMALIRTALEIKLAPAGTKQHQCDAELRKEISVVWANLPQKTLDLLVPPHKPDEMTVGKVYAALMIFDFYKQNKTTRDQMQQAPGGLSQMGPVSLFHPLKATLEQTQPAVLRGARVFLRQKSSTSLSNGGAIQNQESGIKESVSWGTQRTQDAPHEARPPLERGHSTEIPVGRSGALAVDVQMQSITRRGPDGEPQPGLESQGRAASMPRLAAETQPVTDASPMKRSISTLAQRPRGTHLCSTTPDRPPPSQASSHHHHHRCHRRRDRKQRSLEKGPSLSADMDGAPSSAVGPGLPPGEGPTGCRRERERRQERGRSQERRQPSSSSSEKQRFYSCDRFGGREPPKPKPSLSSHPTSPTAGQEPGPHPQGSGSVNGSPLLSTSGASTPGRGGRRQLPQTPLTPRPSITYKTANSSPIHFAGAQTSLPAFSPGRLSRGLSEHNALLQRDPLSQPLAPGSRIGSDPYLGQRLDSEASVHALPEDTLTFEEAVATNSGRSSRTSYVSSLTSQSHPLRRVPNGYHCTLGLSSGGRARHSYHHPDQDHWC
T2 sequence (Q02410 whole entry): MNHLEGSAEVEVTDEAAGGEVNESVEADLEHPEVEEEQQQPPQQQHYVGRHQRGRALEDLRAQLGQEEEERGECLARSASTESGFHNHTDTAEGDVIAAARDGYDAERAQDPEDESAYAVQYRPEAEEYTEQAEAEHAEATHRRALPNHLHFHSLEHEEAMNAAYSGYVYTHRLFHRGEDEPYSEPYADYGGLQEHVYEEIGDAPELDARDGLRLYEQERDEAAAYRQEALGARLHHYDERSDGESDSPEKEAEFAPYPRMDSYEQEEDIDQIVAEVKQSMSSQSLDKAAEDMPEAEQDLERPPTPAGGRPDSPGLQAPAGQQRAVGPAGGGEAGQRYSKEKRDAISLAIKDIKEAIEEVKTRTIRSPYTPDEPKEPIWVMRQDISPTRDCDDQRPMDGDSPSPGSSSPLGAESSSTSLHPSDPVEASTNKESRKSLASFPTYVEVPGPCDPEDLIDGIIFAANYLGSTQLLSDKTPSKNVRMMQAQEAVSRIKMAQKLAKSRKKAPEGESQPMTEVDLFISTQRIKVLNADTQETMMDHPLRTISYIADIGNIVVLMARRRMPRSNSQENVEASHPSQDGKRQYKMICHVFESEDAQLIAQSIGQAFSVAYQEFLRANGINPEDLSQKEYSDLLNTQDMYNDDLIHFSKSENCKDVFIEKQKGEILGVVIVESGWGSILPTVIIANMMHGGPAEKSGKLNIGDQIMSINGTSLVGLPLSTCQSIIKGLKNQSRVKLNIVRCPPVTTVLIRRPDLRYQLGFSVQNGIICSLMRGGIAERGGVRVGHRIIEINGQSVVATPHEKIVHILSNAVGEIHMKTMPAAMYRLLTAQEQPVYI
T1 sequence (P63165 whole entry): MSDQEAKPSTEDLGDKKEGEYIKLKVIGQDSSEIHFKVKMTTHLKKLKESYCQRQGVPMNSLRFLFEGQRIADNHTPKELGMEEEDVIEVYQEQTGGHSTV
T8 sequence (P65502 whole entry): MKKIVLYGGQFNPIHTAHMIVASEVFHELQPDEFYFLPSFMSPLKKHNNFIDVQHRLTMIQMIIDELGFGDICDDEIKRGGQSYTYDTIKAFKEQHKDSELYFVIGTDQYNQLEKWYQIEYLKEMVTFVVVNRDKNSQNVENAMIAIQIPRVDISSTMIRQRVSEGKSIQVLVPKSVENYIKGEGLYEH
T7 sequence (Q9UBE0 whole entry): as the sequence (Q9UBE0 whole entry) above
T7 sequence (Q9UBT2 whole entry): as the sequence (Q9UBT2 whole entry) above

Regarding `COC(=O)Cn1nc(-c2ccc(Cl)cc2)c2ccccc21`, the half-maximal activity concentration (AC50) in the series on Candida albicans was 2.16 µM (active).

For `N#Cc1nc(-c2ccc(OCc3ccc(Cl)cc3)cc2)oc1N1CCC(C(N)=O)CC1`, the IC50 was > 66.6 µM (inactive) in [1], 47.3 µM (active) in [2], 8.79 µM (active) in series [3] and 3.78 µM (active) in [5]. For the same compound, the half-maximal effective concentration (EC50) in [4] is 7.04 µM (active).

With `Cn1c(=O)c2nc(SCc3ccccn3)[nH]c2n(C)c1=S`, the AC50 entry at Cytochrome P450 2D6 was “inconclusive”; at Cytochrome P450 1A2 it was 0.0126 µM (inconclusive).

On to `O=C(N/N=C/c1ccc(F)cc1)c1cc(-c2ccco2)nc2ccccc12`, for which the IC50 against Genome polyprotein was > 49.8 µM (not active); in series [6], 108 µM (active); at SUMO E1/E2 it was 4.33 µM (active) and 8.06 µM (active); at Protein Rev it was > 79.4 µM (not active); on Bcl-2-like protein 10 it was 2.97 µM (active); in [7] it was 5.57 µM (active). Moreover, the IC50 in [2] was 6.44 µM (active); at SUMO-activating enzyme [8] it was 2.28 µM (active); in series [9] it was 2.01 µM (active); in series [10] it was 27.1 µM (active); in series [11] it was 10.8 µM (active); in series [12] it was 5.57 µM (active). In addition, the IC50 at SUMO-activating enzyme [13] was 10.6 µM (active); in series [14] it was 14.6 µM (active); at Albumin it was > 94.1 µM (inactive); in series [5], 8.83 µM (active).

In the case of `CC(C)(C)c1cc[n+](-c2[n-]c(=O)sc2C=NN=C(S)Nc2ccccc2)cc1`, the half-maximal activity concentration (AC50) in series [15] was 65.5 µM (active).
